Assay results reported in ChEMBL document CHEMBL1156995, “Identification of potent, highly constrained CGRP receptor antagonists” (Bioorg Med Chem Lett, 2010).
The source made the active and inactive calls. No cut-off for these calls is given here.

Legend:
[1] = molecular target: T1, Calcitonin gene-related peptide type 1 receptor (Homo sapiens, UniProt O60894+Q16602); experiment: Displacement of […] expressed in HEK293 cells coexpressing human RAMP1; format: cell-based
[2] = molecular target: T1, Calcitonin gene-related peptide type 1 receptor; experiment: Antagonist activity at human CLR expressed in human HEK293 cells coexpressing human RAMP1 assessed as Inhibition of CGRP-induced cAMP production in the presence of 50% human serum; format: functional, cell-based
[3] = molecular target: T1, Calcitonin gene-related peptide type 1 receptor; experiment: Antagonist activity at human CLR expressed in human HEK293 cells coexpressing human RAMP1 assessed as Inhibition of CGRP-induced cAMP production; format: functional, cell-based
[4] = Clearance in rat at 5 mg/kg, po or 1 mg/kg, iv; format: ADME, organism-based; conditions: in vivo
[5] = Half life in rat at 1 mg/kg, iv; format: ADME, organism-based; design: dose 1 mg/kg, route intravenous; conditions: in vivo
[6] = Oral bioavailability in rat at 5 mg/kg in presence of PEG400:water; format: ADME, organism-based; conditions: in vivo
[7] = Half life in rat at 2mg/kg, iv; format: ADME, organism-based; conditions: in vivo
[8] = Half life in dog at 0.5 mg/kg, iv; format: ADME, organism-based, Canis lupus familiaris; design: dose 0.5 mg/kg, route intravenous; conditions: in vivo
[9] = Clearance in rat at 10 mg/kg, po and 2 mg/kg, iv; format: ADME, organism-based; conditions: in vivo
[10] = Half life in rhesus monkey at 0.5 mg/kg, iv; format: ADME, organism-based, Macaca mulatta; design: dose 0.5 mg/kg, route intravenous; conditions: in vivo
[11] = Oral bioavailability in rat at 10 mg/kg in presence of lmwitor:tween; format: ADME, organism-based; conditions: in vivo
[12] = Half life in rat at 2 mg/kg, iv; format: ADME, organism-based; design: dose 2 mg/kg, route intravenous; conditions: in vivo
[13] = Clearance in rhesus monkey at 2 mg/kg, po and 0.5 mg/kg, iv; format: ADME, organism-based, Macaca mulatta; conditions: in vivo
[14] = Oral bioavailability in dog at 1 mg/kg in presence of methylcellulose; format: ADME, organism-based, Canis lupus familiaris; conditions: in vivo
[15] = Clearance in rat at 10 mg/kg, po or 2 mg/kg, iv; format: ADME, organism-based; conditions: in vivo
Rhesus monkey [16] = experiment: Inhibition of capsaicin-induced vasodilation in orally dosed rhesus monkey; format: functional, organism-based; conditions: Macaca mulatta
[17] = Oral bioavailability in rat at 10 mg/kg in presence of methylcellulose; format: ADME, organism-based; conditions: in vivo
[18] = Clearance in dog at 1 mg/kg, po and 0.5 mg/kg, iv; format: ADME, organism-based, Canis lupus familiaris; conditions: in vivo
Rhesus monkey [19] = experiment: Inhibition of capsaicin-induced vasodilation in orally dosed rhesus monkey at 5.5 uM plasma level; format: functional, organism-based; conditions: Macaca mulatta
[20] = Oral bioavailability in rhesus monkey at 2 mg/kg in presence of methylcellulose; format: ADME, organism-based, Macaca mulatta; conditions: in vivo
[21] = Oral bioavailability in rat at 5 mg/kg in presence of lmwitor:tween; format: ADME, organism-based; conditions: in vivo

T1 sequence (Q16602 whole entry, one chain of several): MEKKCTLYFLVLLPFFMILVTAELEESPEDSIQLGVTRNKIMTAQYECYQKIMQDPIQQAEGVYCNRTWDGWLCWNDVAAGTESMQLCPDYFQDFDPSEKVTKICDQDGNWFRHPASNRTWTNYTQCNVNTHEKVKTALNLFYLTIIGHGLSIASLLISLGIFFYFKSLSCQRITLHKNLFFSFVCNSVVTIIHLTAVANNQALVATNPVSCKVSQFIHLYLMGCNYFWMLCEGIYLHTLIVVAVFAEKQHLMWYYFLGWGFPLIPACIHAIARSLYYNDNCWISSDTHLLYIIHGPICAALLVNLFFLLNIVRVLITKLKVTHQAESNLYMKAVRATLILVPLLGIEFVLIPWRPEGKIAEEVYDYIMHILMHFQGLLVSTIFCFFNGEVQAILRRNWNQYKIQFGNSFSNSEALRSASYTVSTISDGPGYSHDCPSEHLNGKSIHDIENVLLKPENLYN

Ki [1] [nM] | IC50 [2] [nM] | IC50 [3] [nM] | half-life [12] [min] | clearance [15] [mL/min/kg] | SMILES | also measured
17 | – | – | – | – | CN1C(=O)NC(=O)[C@]12Cc1cc3ccc(Cn4c(=O)n(-c5ccccn5)c5ccccc54)nc3cc1C2 | –
6000 | – | – | – | – | CN1C(=O)NC(=O)[C@@]12Cc1cc3nc(Cn4c(=O)n(-c5ccccn5)c5ccccc54)oc3cc1C2 | –
0.3 | 14 | 1.7 | – | – | CN1C(=O)NC(=O)[C@@]12Cc1cc3ccc(Cn4c(=O)n5c6c(cccc64)NC(=O)C5)nc3cc1C2 | –
185 | – | – | – | – | CN1C(=O)NC(=O)C12Cc1cc3ncc(Cn4c(=O)n(-c5ccccn5)c5ccccc54)nc3cc1C2 (centres undefined) | –
720 | – | – | – | – | CN1C(=O)NC(=O)[C@]12Cc1cc(F)c(NC(=O)Cn3c(=O)n(-c4ccccn4)c4ccccc43)cc1C2 | –
8.9 | 850 | 50 | 42 | 38 | CN1C(=O)NC(=O)[C@@]12Cc1cc3ccc(CN4C(=O)CCc5ccccc54)nc3cc1C2 | bioavailability [17]: 10%
55 | – | – | – | – | CN1C(=O)NC(=O)[C@]12Cc1ccc(NC(=O)Cn3c(=O)n(-c4ccccn4)c4ccccc43)c(F)c1C2 | –

Continued, compound first:

SMILES | Ki [1] [nM] | IC50 [2] [nM] | IC50 [3] [nM] | half-life [12] [min] | clearance [15] [mL/min/kg] | also measured
CN1C(=O)Cn2c(=O)n(Cc3ccc4cc5c(cc4n3)C[C@@]3(C5)C(=O)Nc4ncccc43)c3cccc1c32 | 0.41 | 95 | 1.2 | – | – | –
O=C1Cn2c(=O)n(Cc3ccc4cc5c(cc4n3)C[C@@]3(C5)C(=O)Nc4ncccc43)c3cccc(c32)N1 | 0.023 | 2.5 | 0.077 | – | – | clearance [4]: 40 mL/min/kg; half-life [5]: 27 min; bioavailability [6]: 0%
CN1C(=O)NC(=O)[C@@]12Cc1cc3ccc(CN4CC5(C)CC(=O)Nc6cccc4c65)nc3cc1C2 (some centres undefined) | 0.52 | 6.5 | 2.2 | 96 | 14 | half-life [7]: 96 min; half-life [8]: 366 min; clearance [9]: 14 mL/min/kg; half-life [10]: 102 min; bioavailability [11]: 34%; clearance [13]: 5.6 mL/min/kg; bioavailability [14]: 59%; EC90 (Rhesus monkey [16]): 5500 nM; bioavailability [17]: 45%; clearance [18]: 1.6 mL/min/kg; inhibition (Rhesus monkey [19]): Active; bioavailability [20]: 38%
O=C1CCc2ccccc2N1Cc1ccc2cc3c(cc2n1)C[C@@]1(C3)C(=O)Nc2ncccc21 | 1.4 | 81 | 4.7 | 21 | 56 | bioavailability [17]: 3%
CCC12CC(=O)Nc3cccc(c31)N(Cc1ccc3cc4c(cc3n1)C[C@@]1(C4)C(=O)NC(=O)N1C)C2 (some centres undefined) | 1.3 | 44 | 7.2 | 66 | 44 | bioavailability [17]: 65%
CN1C(=O)Cn2c(=O)n(Cc3ccc4cc5c(cc4n3)C[C@@]3(C5)C(=O)NC(=O)N3C)c3cccc1c32 | 3 | 1200 | 33 | – | – | –
CN1C(=O)NC(=O)[C@@]12Cc1cc3ccc(CN4CC5CC(=O)Nc6cccc4c65)nc3cc1C2 (some centres undefined) | 1.5 | 43 | 7.3 | 66 | 11 | bioavailability [11]: 41%
O=C1CC2CN(Cc3ccc4cc5c(cc4n3)C[C@@]3(C5)C(=O)Nc4ncccc43)c3cccc(c32)N1 (some centres undefined) | 0.55 | 4.1 | 0.86 | – | – | clearance [4]: 19 mL/min/kg; half-life [5]: 19.2 min; bioavailability [21]: 8%
CCC12CC(=O)Nc3cccc(c31)N(Cc1ccc3cc4c(cc3n1)C[C@@]1(C4)C(=O)Nc3ncccc31)C2 (some centres undefined) | 0.072 | 1.5 | 0.68 | 36.6 | 11 | bioavailability [11]: 9%
CC12CC(=O)Nc3cccc(c31)N(Cc1ccc3cc4c(cc3n1)C[C@@]1(C4)C(=O)Nc3ncccc31)C2 (some centres undefined) | 0.12 | 1.3 | 0.52 | 37.2 | 28 | bioavailability [11]: 6%
